Here are results for 3 compounds from US6900234B1, “Synergistic therapeutic compositions and methods” (Pfizer, Inc., priority 1990, dated 2005).

The test system of one assay is Male Hartley guinea pigs. Kind of assay: Mean arterial pressure lowering (AOC-MAP) in conscious sodium-depleted guinea pigs after i.v. dosing. In kind it is in vivo, guinea pig. Also noted: unit not given here. How it is done:
Male Hartley guinea pigs weighing between 250 and 300 g were obtained from Charles River Laboratories, Lakeview, N.J. The guinea pigs were allowed to acclimate to their environment for at least two weeks. Then, they were placed on a low sodium diet (Purina Modified Guinea Pig Chow, no sodium added) for 14 days and were given injections of furosemide (Lasix® 2 mg/kg, i.m.) on three non-consecutive days. At least 24 hours prior to experimentation, the animals were anesthetized with xylazine (Rompun®, 10 mg/kg, s.c.) and ketamine (Vetalar®, 80 mg/kg, i.m.) and, using aseptic technique, cannulae (PE-50) were implanted into the aorta via the right carotid artery for direct measurement of mean arterial pressure (MAP). Cannulae (PE-50) were also placed into the left jugular vein for intravenous compound administration. Both catheters were exteriorized at the intrascapular region of the animal's back and flushed with a heparinized dextrose solution. To prevent the formation of clots, each cannula was filled with heparin at a concentration of 1000 units/ml. After surgery, an antibacterial, trimethoprim/sulfamethoxazole (Di-Trim®, 30 mg/kg, s.c.), was given to the animals. The animals were allowed to recover with water and no-sodium chow administered ad libitum. On the day of the experiment, each guinea pig was given an additional injection of furosemide (6 mg/kg, i.m.) to accelerate sodium loss and was placed in,a sound-proof, ventilated box with one-way glass for observation. Mean arterial pressure was monitored with a Statham 23DB strain gauge pressure transducer previously calibrated using a mercury manometer. The arterial pressure waveform and derived heart rate were continuously recorded on a Grass Model 7D osciliograph. Arterial pressure waveform samples were obtained approximately every 20 seconds using an IBM PS/2 model 30 computer equipped with a custom algorithm designed to calculate mean arterial pressure from the integrated waveform. Values were obtained for a period of at least one hour prior to and 2 hours (usually 4 hours) after dosing. The test compounds were infused intravenously followed by a 250 μl flush with heparinized dextrose solution.
Dose response curves for the renin inhibitor (RI) (0.3 to 3.0 mg/kg, i.v.) and captopril (0.03 to 1.0 mg/kg, i.v.) were obtained (n=4 to 8) in order to quantitate baseline responses to each drug. In experiments where the renin inhibitor and captopril were co-administered, the renin inhibitor was given first immediately followed by captopril. Doses of renin inhibitor and angiotensin converting enzyme inhibitor, when given together, were chosen on the basis of causing submaximal hypotensive effects. Therefore, the contributory effect of each drug could be quantitated by integration and compared to the expected effect to determine whether additive or synergistic responses had occurred.
Employing the procedure described above, the changes in mean arterial pressure (ΔMAP) for the renin inhibitor (RI), the ACE inhibitor (captopril) and the renin inhibitor (RI), plus the ACE inhibitor (captopril) were obtained for various doses and are shown in Table I, below. The AOC-MAP is the area over the dose response curve for each dose calculated using the trapezoidal method.
The data in Table I were obtained by averaging the Δ MAP of all animals for each dose prior to calculating the AOC-MAP. When the data contained in Table I was reviewed for the purpose of calculating the AOC-MAP by averaging the area over the dose response curve for each animal per dose, it was discovered that the AOC-MAP for 0.5 mg/kg RI plus 0.05 mg/kg captopril inadvertently reflected the data based on only three of the six subject test animals. Shown below in Table II are the AOC-MAP data for the experiments reported in Table I, which data is now the result of determining the area over the dose response curve for each animal per dose and averaging the AOC-MAP, as well as determining the standard deviation. […]

The conditions of assay [1]: reported in Oldham et al., J. Cardiovasc. Pharmacol. 6: 672-677 (1984); cited from earlier work.
The mark [2] stands for this setting: Table I, 1.0 mg/kg i.v., ΔMAP of all animals averaged per dose before calculating the area.
The mark [3] stands for this setting: Table II, 1.0 mg/kg i.v., average of the area for each animal per dose.
Where [4] appears, read: Table III, 0.30 mg/kg i.v., average of the area for each animal per dose.
Setting [5] is: Table III, 1.0 mg/kg i.v., average of the area for each animal per dose.

Turning to `CSCC(NC(=O)C(Cc1ccccc1)NC(=O)N1CCOCC1)C(=O)NC(CC1CCCCC1)C(O)C(=O)OC(C)C` (stereo not drawn) [RI, [alpha-R[alpha-R*,beta-S*(S*,S*)]-alpha-hydroxy-beta-[[2-[[2-(4-morpholin-1-carboxamido)-1-oxo-3-phenylpropyl]amino[-3-methylthio-1-oxo-propyl]amino]-cyclohexanebutanoic acid, isopropyl ester], the AOC-MAP with Male Hartley guinea pigs (Table I, 0.3 mg/kg i.v., ΔMAP of all animals averaged per dose before calculating the area (trapezoidal)) is reported as −256; in the assay on Male Hartley guinea pigs (setting [2]) it was −496; in the assay with Male Hartley guinea pigs (Table I, 3.0 mg/kg i.v., ΔMAP of all animals averaged per dose before calculating the area) it was −1829; in the assay with Male Hartley guinea pigs (Table II, 0.3 mg/kg i.v., average of the area for each animal per dose), −310; in the assay with Male Hartley guinea pigs (setting [3]), −568; in the assay on Male Hartley guinea pigs (Table II, 3.0 mg/kg i.v., average of the area for each animal per dose), −1990.
As for `CCCCc1nc(Cl)c(CO)n1Cc1ccc(-c2ccccc2-c2nn[nH]n2)cc1` [Dup 753], the AOC-MAP is given as −125 with Male Hartley guinea pigs (setting [4]); −549 with Male Hartley guinea pigs (setting [5]); −1575 in the assay with Male Hartley guinea pigs (Table III, 3.0 mg/kg i.v., average of the area for each animal per dose).
Consider `C[C@H](CS)C(=O)N1CCC[C@H]1C(=O)O` [captopril], for which the AOC-MAP was −99 in the assay on Male Hartley guinea pigs (Table I, 0.03 mg/kg i.v., ΔMAP of all animals averaged per dose before calculating the area); −289 in the assay with Male Hartley guinea pigs (Table I, 0.10 mg/kg i.v., ΔMAP of all animals averaged per dose before calculating the area); −1263 in the assay on Male Hartley guinea pigs (Table I, 0.30 mg/kg i.v., ΔMAP of all animals averaged per dose before calculating the area); −3272 in the assay on Male Hartley guinea pigs (setting [2]); −96 with Male Hartley guinea pigs (Table II, 0.03 mg/kg i.v., average of the area for each animal per dose); −283 with Male Hartley guinea pigs (Table II, 0.10 mg/kg i.v., average of the area for each animal per dose). Moreover, the AOC-MAP is given as −1036 with Male Hartley guinea pigs (Table II, 0.30 mg/kg i.v., average of the area for each animal per dose); −3272 in the assay with Male Hartley guinea pigs (setting [3]); −96 in the assay with Male Hartley guinea pigs (Table III, 0.03 mg/kg i.v., average of the area for each animal per dose); −269 in the assay with Male Hartley guinea pigs (Table III, 0.10 mg/kg i.v., average of the area for each animal per dose); −826 in the assay with Male Hartley guinea pigs (setting [4]); −3272 with Male Hartley guinea pigs (setting [5]). Further, in assay [1], the “hypotensive effect of captopril injected during H77 infusion” value is “small additional hypotensive effect”.
